Assay results reported in paper PMC6540076 (Drug Design, Development and Therapy, 2019).
Marks after values point to notes of the source that are not given here.

How the values were obtained:
[1] = tested on: tail-withdrawal latency; assay: Tail-flick latency test; type: in vivo, rats; conditions: for Latency (seconds) / Latency: compounds 5 mg/kg orally, naproxen 2.5 mg/kg orally, in DMSO, mean ± SE of six rats; for Potency (%): analgesic potency after 120 minutes compared with the reference drug naproxen
[2] = tested on: carrageenan-induced paw edema; assay: Carrageenan-induced rat-paw-edema assay; type: in vivo, rats; conditions: for Potency (%): calculated compared to the reference drug naproxen; for Edema (%): compounds 5 mg/kg orally, naproxen 2.5 mg/kg orally, in DMSO, mean ± SE of six rats
[3] = tested on: tumor-bearing rats; conditions: cited from earlier work
[4] = tested on: gastric ulceration; conditions: naproxen 2.5 mg/kg orally, tested compounds 5 mg/g orally in DMSO
[5] = after 1 hour of induced inflammation
[6] = throughout the entire experiment

Row | SMILES | Latency (seconds) ([1]; 30 minutes) | Latency (seconds) ([1]; 60 minutes) | Latency (seconds) ([1]; 120 minutes) | Potency (%) [1] [%] | Potency (%) ([2]; 1 hour) | Edema (%) ([2]; 1 hour) | Potency (%) ([2]; 2 hours) | Edema (%) ([2]; 2 hours) | Potency (%) ([2]; 3 hours) | Edema (%) ([2]; 3 hours) | Potency (%) ([2]; 4 hours) | Edema (%) ([2]; 4 hours) | anti-inflammatory activity (in words) [2, 5] | Latency ([1]; 30 minutes) [s] | anti-inflammatory potency relative to the reference drug ([2]; compared to naproxen) | anti-inflammatory activity relative to naproxen ([2]; entire experiment, after 4 hours) [times] | anti-inflammatory activity (in words) [2, 6] | anti-inflammatory potency (in words) ([2]; after 2, 3, and 4 hours of induced inflammation, compared to the reference drug) | reduction of rate of tumor growth [3] [%] | ulcerogenic effect, macroscopic examination of the stomach [4]
1 | COc1ccc2cc(C(C)C(=O)NC(=S)NC(C)C(=O)O)ccc2c1 (centres unmarked) [Compound 5, 2-(3-(2-(6-methoxynaphthalen-2-yl)propanoyl)thioureido)propanoic acid] | 3.9±0.3^b seconds | 3.9±0.4^b seconds | 3.9±0.2^b seconds | 55.7 | 102.5 | 21.2±1.66 | 64.6 | 30.4±1.19 | 71.1 | 33.7±1.68 | 71.7 | 32.8±1.40 | highest anti-inflammatory activity |  |  |  |  |  |  | 
2 | COc1ccc2cc(C(C)C(=O)NC(=S)NCCC(=O)O)ccc2c1 (centres unmarked) [Compound 6, 3-(3-(2-(6-methoxynaphthalen-2-yl)propanoyl)thioureido)propanoic acid] |  | 4.0±0.2^b seconds | 4.2±0.3^b seconds | 60.0 | 67.6 | 24.6±2.39 | 60.0 | 31.4±2.46 | 64.4 | 35.1±2.99 | 60.3 | 35.3±3.06 | moderate potency | 4.6 ± 0.3 |  |  |  |  |  | 
3 | COc1ccc2cc(C(C)C(=O)NC(=S)NC(CO)C(=O)O)ccc2c1 (centres unmarked) [Compound 7, 3-hydroxy-2-(3-(2-(6-methoxynaphthalen-2-yl)propanoyl)thioureido)propanoic acid] | 3.9±0.4^b seconds | 3.6±0.3^b seconds | 4.1±0.2^b seconds | 58.6 | 73.9 | 24.0±1.90 | 73.3 | 28.4±0.78 | 89.8 | 29.7±0.95 | 85.2 | 30.0±0.95 | moderate potency |  |  |  |  |  |  | 
4 | COc1ccc2cc(C(C)C(=O)NC(=S)NC(Cc3ccc(O)cc3)C(=O)O)ccc2c1 (centres unmarked) [Compound 8, 3-(4-hydroxyphenyl)-2-(3-(2-(6-methoxynaphthalen-2-yl)propanoyl)thioureido)propanoic acid] | 5.0±0.2^a seconds | 4.9±0.3^a,b seconds | 5.9±0.5^a seconds | 84.3 | 138.4 | 17.6±1.55 | 111.4 | 19.9±1.50 | 129.2 | 21.5±1.42 | 131.2 | 20.0±2.02 | highest anti-inflammatory activity |  | about 1.4 times | 1.3 | highest anti-inflammatory activity |  |  | 
5 | COC(=O)C(C)NC(=S)NC(=O)C(C)c1ccc2cc(OC)ccc2c1 (centres unmarked) [Compound 9, Methyl 2-(3-(2-(6-methoxynaphthalen-2-yl)propanoyl)thioureido)propanoate] | 3.7±0.2^b seconds | 3.8±0.3^b seconds | 4.0±0.3^b seconds | 57.1 | 4.7 | 30.8±1.09 | 11.6 | 42.2±3.50 | 21.1 | 44.2±3.94 | 32.3 | 41.3±2.99 |  |  |  |  |  |  |  | 
6 | COC(=O)CCNC(=S)NC(=O)C(C)c1ccc2cc(OC)ccc2c1 (centres unmarked) [Compound 10, Methyl 3-(3-(2-(6-methoxynaphthalen-2-yl)propanoyl)thioureido)propanoate] | 3.1±0.3^b seconds | 4.6±0.4^b seconds | 5.7±0.2^a,b seconds | 81.4 | 6.3 | 30.7±2.38 | 9.8 | 42.6±2.45 | 10.4 | 46.4±2.61 | 15.9 | 44.9±3.34 |  |  |  |  |  |  |  | 
7 | COC(=O)C(CO)NC(=S)NC(=O)C(C)c1ccc2cc(OC)ccc2c1 (centres unmarked) [Compound 11, Methyl 3-hydroxy-2-(3-(2-(6-methoxynaphthalen-2-yl)propanoyl)thioureido)propanoate] | 4.8±0.5^a seconds | 4.8±0.4^b seconds | 4.8±0.2^a,b seconds | 68.6 | 66.7 | 24.7±1.79 | 62.2 | 30.9±2.05 | 32.5 | 41.8±2.81 | 32.1 | 41.4±2.59 | moderate potency |  |  |  |  |  |  | 
8 | COc1ccc2cc(C(C)C(=O)NC(=S)NCCC(=O)NN)ccc2c1 (centres unmarked) [Compound 14, N-(3-hydrazinyl-3-oxopropylcarbamothioyl)-2-(6-methoxynaphthalen-2-yl)propanamide] | 6.1±0.4^a seconds | 5.6±0.2^a seconds | 5.7±0.3^a,b seconds | 81.4 | 40.3 | 27.3±0.88 | 32.9 | 37.4±3.58 | 44.9 | 39.2±2.42 | 26.5 | 42.6±1.61 |  | 6.1 ± 0.4 |  |  | lowest anti-inflammatory potency |  |  | 
9 | COc1ccc2cc(C(C)C(=O)NC(=S)NC(CO)C(=O)NN)ccc2c1 (centres unmarked) [Compound 15, N-(1-hydrazinyl-3-hydroxy–1-oxopropan-2-yl-carbamothioyl)-2-(6-methoxynaphthalen-2-yl)propanamide] |  | 3.9±0.2^b seconds | 4.5±0.3^b seconds | 64.3 | 120.0 | 19.5±0.50 | 96.8 | 23.2±2.05 | 88.2 | 30.1±2.58 | 80.5 | 31.0±1.68 | highest anti-inflammatory activity | 4.2 ± 0.4 |  |  |  | moderate potency |  | 
10 | COc1ccc2cc([C@H](C)C(=O)O)ccc2c1 [Naproxen, reference compound] | 5.3±0.3^a seconds | 6.2±0.4^a seconds | 7.0±0.4^a seconds | 100 | 100 | 21.5±2.03 | 100 | 22.5±1.22 | 100 | 27.6±0.85 | 100 | 26.7±1.90 |  |  |  |  |  |  | 58 | moderate gastric ulceration
